What was measured:
CB1R [1] = tested on: CB1R; design: method as in Laprairie et al., 2019; conditions: ref Laprairie et al., 2019; cited from earlier work
C57BL/6J mice [2] = assay: Tetrad: tail flick latency (anti-nociception); format: in vivo, mouse; conditions: for tail flick latency compared to vehicle: single agent i.p. (CP55940 0.1 mg/kg; indomethacin 2 mg/kg), 0.5, 1 and 4 h
Method: (§1) Seven-week old, male, C57BL/6J mice (mean weight 25.2 ± 0.5 g) were purchased from The Jackson Laboratory (Bar Harbor, ME, United States). Animals were group housed (5 per cage) with ad libitum access to food, water, and environmental enrichment and maintained on a 12 h light/dark cycle. […] All protocols were in accordance with the guidelines detailed by the Canadian Council on Animal Care (CCAC; Ottawa ON: Vol. 1, 2nd Ed., 1993; Vol. 2, 1984), approved by the Carleton Animal Care Committee at Dalhousie University. In keeping with the ARRIVE guidelines, power analyses were conducted to determine the minimum number of animals required for the study and animals were purchased – rather than bred – to limit animal waste, and all assessments of animal behavior were made by individuals blinded to treatment group ([Kilkenny et al., 2010]).
Anti-nociception was determined by assessing tail flick latency immediately prior to injection and 0.5, 1, and 4 h following injection. Mice were restrained with their tails placed ∼1 cm into water held at 52°C and the time until the tail was removed was recorded as tail flick latency (s). Observations were ended at 10 s.

C57BL/6J mice [3] = assay: Tetrad: catalepsy, ring holding assay; format: in vivo, mouse; conditions: for catalepsy: single agent i.p. (CP55940 0.1 mg/kg; indomethacin 2 mg/kg), 1 and 4 h
Method: as §1
Catalepsy was assessed in the ring holding assay immediately prior to injection and 1 and 4 h following injection. The mice were placed such that their forepaws clasped a 5 mm ring positioned 5 cm above the surface of the testing space. The length of time the ring was held was recorded (s). The trial was ended if the mouse turned its head or body, or made three consecutive escape attempts.

C57BL/6J mice [4] = assay: Tetrad: internal body temperature; format: in vivo, mouse; conditions: 0.5 and 1 h; for body temperature compared to vehicle: single agent i.p. (CP55940 0.1 mg/kg; indomethacin 2 mg/kg)
Method: as §1
Internal body temperature was measured via rectal thermometer immediately prior to injection and 0.5, 1, and 4 h following injection.

C57BL/6J mice [5] = assay: Tetrad: locomotion, open field test; format: in vivo, mouse
Method: as §1
Locomotion was assessed in the open field test immediately prior to injection and 1 and 4 h following injection. Mice were placed in an open space 90 cm × 60 cm and total distance was recorded for 5 min.

hCB1R [6] = molecular target: T1, hCB1R (Homo sapiens, UniProt P21554); assay: [3H]CP55940 radioligand binding, CHO cell membranes; conditions: 0.7 nM [3H]CP55940; indomethacin between 10 nM and 10 μM, bell-shaped, greatest at 10 and 100 nM
T1 sequence (P21554 whole entry): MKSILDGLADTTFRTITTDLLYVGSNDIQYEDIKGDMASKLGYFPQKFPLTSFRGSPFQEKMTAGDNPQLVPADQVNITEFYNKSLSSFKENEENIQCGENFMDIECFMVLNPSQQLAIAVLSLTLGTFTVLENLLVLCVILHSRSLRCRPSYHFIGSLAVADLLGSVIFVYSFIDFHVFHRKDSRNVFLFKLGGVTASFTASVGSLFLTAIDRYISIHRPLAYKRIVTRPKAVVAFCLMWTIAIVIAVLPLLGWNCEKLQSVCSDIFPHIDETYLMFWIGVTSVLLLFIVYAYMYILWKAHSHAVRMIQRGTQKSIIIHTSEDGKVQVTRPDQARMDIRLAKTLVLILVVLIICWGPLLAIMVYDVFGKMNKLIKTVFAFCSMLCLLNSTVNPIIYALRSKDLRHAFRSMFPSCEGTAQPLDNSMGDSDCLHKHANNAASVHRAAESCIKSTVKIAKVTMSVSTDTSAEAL
Method: Binding was initiated by the addition of transfected human CB1R or CB2R CHO cell membranes (50 μg protein per well). All assays were performed at 37°C for 60 min before termination by the addition of ice-cold Tris binding buffer, followed by vacuum filtration using a 24-well sampling manifold (Brandel Cell Harvester; Brandel Inc., Gaithersburg, MD, United States) and Brandel GF/B filters that had been soaked in wash buffer at 4°C for at least 24 h. Each reaction well was washed six times with a 1.2 mL aliquot of Tris binding buffer. The filters were oven-dried for 60 min and then placed in 3 ml of scintillation fluid (Ultima Gold XR, PerkinElmer, Seer Green, Buckinghamshire, United Kingdom). Radioactivity was quantified by liquid scintillation spectrometry.

hCB1R [7] = molecular target: T1, hCB1R; format: binding
Method: The assay was terminated by rapid filtration onto GF/B filters pre-soaked in assay buffer using a Brandel cell harvester. The filters were washed six times with the ice-cold buffer before being dried in a heated cabinet. Filters were placed in vials to which 3 mL Ultima Gold scintillation fluid was added. The radioactivity in each vial was then counted for 3 min in a Tri-Carb liquid scintillation counter.

hCB1R [8] = molecular target: T1, hCB1R; assay: [35S]GTPγS binding assay, CHO cell membranes; format: biochemical; conditions: 1 μM indomethacin in the presence of 1 nM and 10 μM AEA
Method: (§2) Human CB1R and CB2R CHO cell membranes (25 μg protein) were preincubated for 30 min at 30°C with adenosine deaminase (0.5 IU/ml). […] Binding was initiated by the addition of [^35S]GTPγS. Non-specific binding was measured in the presence of 30 μM GTPγS. The reaction was terminated by rapid vacuum filtration (50 mM Tris–HCl; 50 mM Tris–Base; 0.1% BSA) using a 24-well sampling manifold (cell harvester; Brandel, Gaithersburg, MD, United States) and GF/B filters (Whatman, Maidstone, United Kingdom) that had been soaked in buffer (50 mM Tris–HCl; 50 mM Tris–Base; 0.1% BSA) for at least 24 h. Each reaction tube was washed six times with a 1.2-mL aliquot of ice-cold wash buffer. The filters were oven-dried for at least 60 min and then placed in 3 mL of scintillation fluid (Ultima Gold XR, PerkinElmer, Cambridge, United Kingdom). Radioactivity was quantified by liquid scintillation spectrometry.

hCB1R [9] = molecular target: T1, hCB1R; format: cell-based; conditions: indomethacin alone
Method: (§3) Cells were fixed for 10 min at room temperature with 4% paraformaldehyde and washed three times with 0.1 M PBS for 5 min each. Cells were incubated with blocking solution (PBS, 20% Odyssey blocking buffer, and 0.1% TritonX-100) for 1 h at room temperature. […] Cells were washed three times with PBS for 5 min each. Cells were incubated in IR^CW700dye or IR^CW800dye (1:500; Rockland Immunochemicals) and washed three times with PBS for 5 min each. Analyses were conducted using the Odyssey Imaging system and software (version 3.0; Li-Cor).

hCB1R [10] = molecular target: T1, hCB1R; format: cell-based; conditions: indomethacin alone; remark: listed apart in the source
Method: (§4) Briefly, 48 h post-transfection cells were washed twice with cold PBS and suspended in BRET buffer [PBS supplemented with glucose (1 mg/mL), benzamidine (10 mg/mL), leupeptin (5 mg/mL), and a trypsin inhibitor (5 mg/mL)]. Cells were treated with compounds as indicated (PerkinElmer) and coelenterazine 400a substrate (50 μM; Biotium, Hayward, CA, United States) was added.

hCB1R [11] = molecular target: T1, hCB1R; format: cell-based; conditions: indomethacin alone; remark: listed apart in the source
Method: (§5) HEK-CRE cells were transfected with CB1R-GFP^2 or CB2R-GFP^2. Forty-eight hours post-transfection cells were washed twice with cold PBS and suspended in BRET buffer. Cells were dispensed into 96-well plates (10,000 cells/well) and treated with 10 μM forskolin and ligands (PerkinElmer). Media was aspirated from cells and cells were lysed with passive lysis buffer for 20 min at room temperature (Promega, Oakville, ON, Canada).

hCB1R [12] = assay: Bias analysis by operational model, ΔΔLogR (cAMP–βarrestin2), CHO cells; format: cell-based, human; conditions: reference agonist CP55940
Method: Concentration-response curves (CRC) were fit using non-linear regression with variable slope (four parameters) and used to calculate EC50, Emin, and Emax (GraphPad, Prism, v. 8.0). […] Statistical analyses were conducted by Student’s one

[13] = design: method as in Remmel et al., 2004; conditions: ref Remmel et al., 2004; cited from earlier work
ICR mice = tested on: ICR mice; design: method as in Wiley et al. (2006); conditions: indomethacin 10 or 30 mg/kg, AEA 30 mg/kg, ref Wiley et al. (2006); cited from earlier work
hCB2R [14] = molecular target: T2, hCB2R (Homo sapiens, UniProt P34972); assay: [35S]GTPγS binding assay, CHO cell membranes; format: biochemical; design: expressed in transfected cells; HEK-CRE reporter cells for the cAMP luciferase assay; conditions: data not shown
T2 sequence (P34972 whole entry): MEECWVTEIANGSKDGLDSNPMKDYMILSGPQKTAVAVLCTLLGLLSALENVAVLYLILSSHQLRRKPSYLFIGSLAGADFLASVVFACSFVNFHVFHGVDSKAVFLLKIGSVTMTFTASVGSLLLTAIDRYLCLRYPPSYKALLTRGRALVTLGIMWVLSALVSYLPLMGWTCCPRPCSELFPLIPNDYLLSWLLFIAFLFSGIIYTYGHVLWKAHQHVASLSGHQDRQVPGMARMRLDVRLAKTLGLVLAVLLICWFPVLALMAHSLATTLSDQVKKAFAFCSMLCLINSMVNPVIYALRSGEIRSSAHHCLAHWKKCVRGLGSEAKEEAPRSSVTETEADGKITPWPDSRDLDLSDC
Method: as §2

hCB2R [15] = molecular target: T2, hCB2R; assay: cAMP luciferase reporter assay, HEK-CRE hCB2R-GFP2; format: cell-based; design: expressed in transfected cells; HEK-CRE reporter cells for the cAMP luciferase assay; conditions: indomethacin alone
Method: as §5

hCB2R [16] = molecular target: T2, hCB2R; assay: βarrestin1 recruitment, BRET2, HEK293A hCB2R-GFP2; format: cell-based; design: expressed in transfected cells; host or cells: HEK293A cells, transient (Lipofectamine 2000); conditions: indomethacin alone
Method: as §4

hCB2R [17] = molecular target: T2, hCB2R; assay: ERK1/2 phosphorylation, in-cell western, HEK293A hCB2R-GFP2; format: cell-based; design: expressed in transfected cells; host or cells: HEK293A cells; HEK-CRE reporter cells for the cAMP luciferase assay; conditions: indomethacin alone
Method: as §3

hCB2R [18] = molecular target: T2, hCB2R; assay: PLCβ3 phosphorylation, in-cell western, HEK293A hCB2R-GFP2; format: cell-based; design: expressed in transfected cells; host or cells: HEK293A cells; HEK-CRE reporter cells for the cAMP luciferase assay; conditions: indomethacin alone
Method: as §3

CB1R [19] = tested on: CB1R; design: method as in Pamplona et al., 2012; conditions: PAM of ligand binding and cAMP inhibition at CB1R; ref Pamplona et al., 2012; cited from earlier work

## C=C(C)[C@@H]1CCC(C)=C[C@H]1c1c(O)cc(CCCCC)cc1O [CBD, cannabidiol]
CB1R [1]
  concentrations that reduce CP55940 binding: > 1 µM

## CCCCCCC(C)(C)c1ccc([C@@H]2C[C@H](O)CC[C@H]2CCCO)c(O)c1 [CP55940, (-)-cis-3-[2-Hydroxy-4-(1,1-dimethylheptyl)phenyl]-trans-4-(3-hydroxypropyl)cyclohexanol]
C57BL/6J mice [2]
  tail flick latency compared to vehicle: increased
C57BL/6J mice [3]
  catalepsy: increased
C57BL/6J mice [4]
  body temperature compared to vehicle: reduced
C57BL/6J mice [5]; CP55940 0.1 mg/kg i.p., 1 and 4 h
  locomotion (distance traveled in the open field) compared to vehicle: reduced

## COc1ccc2c(c1)c(CC(=O)O)c(C)n2C(=O)c1ccc(Cl)cc1 [Indomethacin, indomethacin]
hCB1R [6]
  [3H]CP55940 binding to hCB1R: enhanced
hCB1R [7]; 1 μM indomethacin
  rate of dissociation of [3H]CP55940 compared to vehicle: did not change
hCB1R [7]; +1 μM indomethacin, 24°C, dissociation started with 1 μM unlabeled CP55940
  t1/2 (min) (95% CI) of [3H]CP55940 dissociation: 4.67 (3.17–8.80) min
hCB1R [8]
  [35S]GTPγS binding to hCB1R: enhanced
hCB1R [9]
  hCB1R-dependent ERK1/2 phosphorylation: did not alter
  hCB1R-dependent PLCβ3 phosphorylation: did not alter
hCB1R [10]
  hCB1R-dependent βarrestin1 recruitment: did not alter
hCB1R [11]
  hCB1R-dependent cAMP levels: did not alter
hCB1R [12]; indomethacin in the presence of AEA
  bias between cAMP inhibition and βarrestin2 recruitment (ΔΔLogR): selectively enhance inhibition of cAMP
hCB1R [12]; indomethacin in the presence of CP55940
  bias between cAMP inhibition and βarrestin2 recruitment (ΔΔLogR): did not display bias
C57BL/6J mice [2]; CP55940 0.1 mg/kg + indomethacin 4 mg/kg i.p., 1 h
  tail flick latency compared to CP55940 or indomethacin alone: increased
C57BL/6J mice [2]
  tail flick latency compared to vehicle: increased
C57BL/6J mice [3]; 2 and 4 mg/kg indomethacin with CP55940 0.1 mg/kg i.p., 1 h
  catalepsy time compared to CP55940 alone: significantly increased
C57BL/6J mice [3]
  catalepsy: not
C57BL/6J mice [4]; CP55940 0.1 mg/kg + indomethacin 4 mg/kg i.p.
  body temperature compared to CP55940 or indomethacin alone: further reduced
C57BL/6J mice [4]
  body temperature compared to vehicle: reduced
C57BL/6J mice [5]; CP55940 0.1 mg/kg + indomethacin 4 mg/kg i.p., 4 h
  locomotion compared to CP55940 or indomethacin alone: further reduced
[13]
  t1/2 in mouse: 51 min
ICR mice
  AEA-dependent hypolocomotion, anti-nociception, hypothermia, and immobility: enhanced
hCB2R [14]
  [35S]GTPγS binding to hCB2R: did not effect
hCB2R [15]
  hCB2R-dependent cAMP inhibition: did not alter
hCB2R [16]
  hCB2R-dependent βarrestin1 recruitment: did not alter
hCB2R [17]
  hCB2R-dependent ERK1/2 phosphorylation: did not alter
hCB2R [18]
  hCB2R-dependent PLCβ3 phosphorylation: did not alter

## CCCCC[C@H](O)/C=C/C=C\C=C\C=C\[C@@H](O)[C@@H](O)CCCC(=O)O [Lipoxin A4, lipoxin A4]
CB1R [19]
  potency in vitro: high micromolar

Reference: publication PMC6813218 (Frontiers in Molecular Neuroscience, 2019)
